One assay addresses T1, human TTK (Homo sapiens, UniProt P33981).
T1 construct: amino terminal GST fusion of full length human TTK; purchased Invitrogen
T1 sequence (P33981 1-857): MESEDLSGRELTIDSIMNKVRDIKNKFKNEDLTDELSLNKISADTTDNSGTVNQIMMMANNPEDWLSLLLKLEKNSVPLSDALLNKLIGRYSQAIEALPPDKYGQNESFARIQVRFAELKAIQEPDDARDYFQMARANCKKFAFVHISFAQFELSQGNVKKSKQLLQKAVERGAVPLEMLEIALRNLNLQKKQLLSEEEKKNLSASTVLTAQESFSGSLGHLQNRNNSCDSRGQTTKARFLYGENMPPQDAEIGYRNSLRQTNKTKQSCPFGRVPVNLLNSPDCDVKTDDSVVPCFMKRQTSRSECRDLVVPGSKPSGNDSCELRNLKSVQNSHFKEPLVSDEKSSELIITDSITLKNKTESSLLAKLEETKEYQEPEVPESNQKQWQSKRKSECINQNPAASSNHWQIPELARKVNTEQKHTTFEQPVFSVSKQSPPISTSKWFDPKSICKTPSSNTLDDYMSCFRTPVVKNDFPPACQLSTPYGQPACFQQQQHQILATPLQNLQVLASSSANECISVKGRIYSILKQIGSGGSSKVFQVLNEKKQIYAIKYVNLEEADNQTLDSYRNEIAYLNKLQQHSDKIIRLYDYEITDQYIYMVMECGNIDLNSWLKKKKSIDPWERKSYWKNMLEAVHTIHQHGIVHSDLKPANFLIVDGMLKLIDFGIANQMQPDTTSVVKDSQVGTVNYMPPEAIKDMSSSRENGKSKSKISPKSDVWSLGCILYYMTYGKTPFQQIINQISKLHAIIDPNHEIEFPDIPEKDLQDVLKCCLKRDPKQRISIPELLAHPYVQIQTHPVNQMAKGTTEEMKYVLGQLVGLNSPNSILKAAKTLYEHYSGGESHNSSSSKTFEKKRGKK
Kind of assay: TTK inhibition assay (indirect ELISA). It is filed as biochemical. The settings on record: GST-TTK 0.68 nM, 16 μM ATP; read-out: IC50 Ranges TTK.

The target of the next assay is T2, human PLK4 (Homo sapiens, UniProt O00444).
T2 construct: amino terminal GST fusion of residues 1-391 of human PLK4; made in house; host or cells: E. coli
T2 sequence (O00444 1-391): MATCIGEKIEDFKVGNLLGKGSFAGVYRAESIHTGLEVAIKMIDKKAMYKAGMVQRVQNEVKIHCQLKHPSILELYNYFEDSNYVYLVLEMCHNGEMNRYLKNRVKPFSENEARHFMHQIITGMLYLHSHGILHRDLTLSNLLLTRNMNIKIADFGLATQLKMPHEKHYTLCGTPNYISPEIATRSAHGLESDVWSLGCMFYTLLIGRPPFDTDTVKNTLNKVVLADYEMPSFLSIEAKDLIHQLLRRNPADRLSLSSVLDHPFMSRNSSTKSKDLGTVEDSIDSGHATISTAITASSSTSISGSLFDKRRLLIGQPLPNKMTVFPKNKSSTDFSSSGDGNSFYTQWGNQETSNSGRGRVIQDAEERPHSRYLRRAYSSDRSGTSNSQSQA
Kind of assay: PLK4 inhibition assay (indirect ELISA). It is filed as biochemical. To be noted: GST-PLK4 4 nM, 15 μM ATP; read-out: IC50 Ranges PLK4. In a few lines: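 Compounds were tested either at a single 10 μM dose or across 10-point titrations (typically 0.5 to 0.001 μM), preincubated 15 min with 4 nM GST-PLK4 (human 1-391, dephosphorylated) before 15 μM ATP was added. MBP substrate phosphorylation over 30 min, pH 7.5 HEPES/MgCl2 buffer, read by HRP/TMB ELISA (450 nm). % inhibition vs. high-activity control; IC50 by logistic fit.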

Assay [1] relates to MDA-MB-231 breast cancer cells. Kind of assay: Cell growth inhibition, Sulforhodamine B assay, MDA-MB-231. The settings on record: Homo sapiens, 120 h, 5 days culture, SRB assay, read-out: Cell Line GI50 Range MDA-MB-231. It is filed as cell-based. On the technique in general: The SRB assay estimates cell density from bound dye.
The subject of assay [2] is MDA-MB-468 breast cancer cells. Kind of assay: Cell growth inhibition, Sulforhodamine B assay, MDA-MB-468. It is filed as cell-based. The settings on record: Homo sapiens, 120 h, 5 days culture, SRB assay, read-out: Cell Line GI50 Range MDA-MB-468.
Assay [3] has as its system HCT116 colon cancer cells. Kind of assay: Cell growth inhibition, Sulforhodamine B assay, HCT116. The assay is classed as cell-based. To be noted: Homo sapiens, HCT-116, 120 h, 5 days culture, SRB assay, read-out: Cell Line GI50 Range HCT116.
In another assay the test system is HT29 colon cancer cells. Kind of assay: Cell growth inhibition, Sulforhodamine B assay, HT29. The assay is classed as cell-based. The settings on record: Homo sapiens, HT-29, 120 h, 5 days culture, SRB assay, read-out: Cell Line GI50 Range HT29.
Assay [4] concerns OVCAR-3 ovarian cancer cells. Kind of assay: Cell growth inhibition, Sulforhodamine B assay, OVCAR-3. It is filed as cell-based. To be noted: Homo sapiens, 120 h, 5 days culture, SRB assay, read-out: Cell Line GI50 Range OVCAR-3.
The target of a further assay is T3, Aurora B (Homo sapiens, UniProt Q96GD4).
T3 construct: purchased Invitrogen PV3970
The experiment in a line: Aurora B inhibition assay (Z-Lyte). The assay is classed as biochemical. To be noted: 28 nM Aurora B, 128 μM ATP; read-out: IC50 Ranges Aurora B. The method, then: Aurora B inhibition was determined using the Z-Lyte assay kit from Invitrogen. The assay was performed using the recommended manufacturer's instructions with 128 μM ATP and 28 nM Aurora B (Invitrogen cat #PV3970). The % inhibition values were determined according to the manufacturer's directions and IC50 values were obtained using a non-linear 4 point logistic curve fit (XLfit4, IDBS)

A value given as a limit tells only on which side of the number the result lay.

T3 sequence (Q96GD4 whole entry): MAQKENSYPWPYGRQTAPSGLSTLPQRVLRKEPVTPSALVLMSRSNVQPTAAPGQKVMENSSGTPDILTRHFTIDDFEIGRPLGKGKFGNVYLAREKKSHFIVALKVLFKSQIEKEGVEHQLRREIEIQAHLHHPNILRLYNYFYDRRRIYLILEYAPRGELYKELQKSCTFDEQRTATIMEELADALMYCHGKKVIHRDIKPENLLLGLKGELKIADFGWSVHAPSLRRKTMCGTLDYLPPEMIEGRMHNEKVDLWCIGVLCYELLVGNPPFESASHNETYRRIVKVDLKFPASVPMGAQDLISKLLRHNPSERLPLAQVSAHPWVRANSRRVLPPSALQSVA

What is called IC50 is the concentration needed to halve the response being measured. In general, GI50 refers to the concentration at which growth is held to half of that of the control. Take `C[C@H](NC(=O)c1ccc2[nH]nc(-c3ccc(N4CCOCC4)cc3)c2c1)C1CCCCC1` [Example A40, (S)—N-(1-cyclohexylethyl)-3-(4-morpholinophenyl)-1H-indazole-5-carboxamide]: the IC50 on human TTK and on human PLK4 was ≤ 5 µM in each case. Further, the 50% growth inhibitory concentration (GI50) (in assay [1]; in assay [2]; in assay [3]; in the assay on HT29 colon cancer cells; in assay [4]) was ≤ 5 µM each time.

With `CN1CCC(Oc2ccc(-c3n[nH]c4ccc(NC(=O)N5CCCc6ccccc65)cc34)cc2)CC1` [Example A73, N-(3-(4-((1-methylpiperidin-4-yl)oxy)phenyl)-1H-indazol-5-yl)-3,4-dihydroquinoline-1(2H)-carboxamide], the IC50 on human TTK and at human PLK4 was ≤ 5 µM throughout. Also, the GI50 in assay [1] was ≤ 5 µM; in assay [2], ≤ 5 µM; in assay [3], ≤ 5 µM; in the assay on HT29 colon cancer cells, ≤ 5 µM; in assay [4] it was 5 to 20 µM.

Regarding `CN1CCC(Oc2ccc(-c3n[nH]c4ccc(C(=O)N[C@@H]5CCCc6ccccc65)cc34)cc2)CC1` [Example A26, (R)-3-(4-((1-methylpiperidin-4-yl)oxy)phenyl)-N-(1,2,3,4-tetrahydronaphthalen-1-yl)-1H-indazole-5-carboxamide], the IC50 at human TTK and at human PLK4 was ≤ 5 µM throughout. Also, the GI50 (in assay [1]; in assay [2]; in assay [3]; with HT29 colon cancer cells; in assay [4]) was ≤ 5 µM throughout.

With `CN1CCC(Oc2ccc(-c3n[nH]c4ccc(NC(=O)Nc5ccccc5Cl)cc34)cc2)CC1` [Example A62, 1-(2-chlorophenyl)-3-(3-(4-((1-methylpiperidin-4-yl)oxy)phenyl)-1H-indazol-5-yl)urea], the IC50 on human TTK and on human PLK4 was ≤ 5 µM throughout. Besides, the GI50 (in assay [1]; in assay [2]; in assay [3]; in the assay with HT29 colon cancer cells; in assay [4]) was ≤ 5 µM throughout.

Consider `O=C(Nc1ccc2[nH]nc(-c3ccc(NC4CCCCC4)cc3)c2c1)C(c1ccsc1)N1CCCC1` (centres unmarked) [Example A68, N-(3-(4-(cyclohexylamino)phenyl)-1H-indazol-5-yl)-2-(pyrrolidin-1-yl)-2-(thiophen-3-yl)acetamide], for which the IC50 on human TTK and on human PLK4 was ≤ 5 µM in each case. Also, the GI50 (in assay [1]; in assay [2]; in assay [3]; with HT29 colon cancer cells; in assay [4]) was ≤ 5 µM throughout.

Consider `CN1CCC(Oc2ccc(-c3n[nH]c4ccc(NC(=O)Nc5c(Cl)cccc5Cl)cc34)cc2)CC1` [Example A76, 1-(2,6-dichlorophenyl)-3-(3-(4-((1-methylpiperidin-4-yl)oxy)phenyl)-1H-indazol-5-yl)urea], for which the IC50 at human TTK, on human PLK4 and on Aurora B was ≤ 5 µM each time. In addition, the GI50 in assay [2] was ≤ 5 µM; in assay [3] it was ≤ 5 µM; with HT29 colon cancer cells, ≤ 5 µM; in assay [4] it was 5 to 20 µM.

With `O=C(Nc1ccc2[nH]nc(-c3ccc(NC4CCCC4)cc3)c2c1)C(c1ccsc1)N1CCCC1` (centres unmarked) [Example A70, N-(3-(4-(cyclopentylamino)phenyl)-1H-indazol-5-yl)-2-(pyrrolidin-1-yl)-2-(thiophen-3-yl)acetamide], the IC50 on human TTK and at human PLK4 was ≤ 5 µM throughout. Further, the GI50 (in assay [2]; in assay [3]; in the assay with HT29 colon cancer cells; in assay [4]) was ≤ 5 µM in each case.

With `CN1CCC(Oc2ccc(-c3n[nH]c4ccc(C(=O)NCC(c5ccsc5)N5CCOCC5)cc34)cc2)CC1` (centres unmarked) [Example A75, 3-(4-((1-methylpiperidin-4-yl)oxy)phenyl)-N-(2-morpholino-2-(thiophen-3-yl)ethyl)-1H-indazole-5-carboxamide], the IC50 at human TTK and on human PLK4 was ≤ 5 µM each time. Moreover, the GI50 in assay [1] is 5 to 20 µM; in assay [2], ≤ 5 µM; in assay [3], ≤ 5 µM; in the assay with HT29 colon cancer cells, ≤ 5 µM; in assay [4] it was 5 to 20 µM.

For the molecule `CN1CCC(Oc2ccc(-c3n[nH]c4ccc(NC(=O)Nc5ccccc5F)cc34)cc2)CC1` [Example A56, 1-(2-fluorophenyl)-3-(3-(4-((1-methylpiperidin-4-yl)oxy)phenyl)-1H-indazol-5-yl)urea], the IC50 at human TTK and at human PLK4 was ≤ 5 µM in each case. Besides, the GI50 in assay [1] was ≤ 5 µM; in assay [2], ≤ 5 µM; in assay [3] it was ≤ 5 µM; with HT29 colon cancer cells it was ≤ 5 µM; in assay [4] it was 5 to 20 µM.

`O=C(NC(c1ccccc1)C1CC1)c1ccc2[nH]nc(-c3cccc(N4CCOCC4)c3)c2c1` (centres unmarked) [Example A61, N-(cyclopropyl(phenyl)methyl)-3-(3-morpholinophenyl)-1H-indazole-5-carboxamide]: the 50% inhibitory concentration (IC50) at human TTK and on human PLK4 was ≤ 5 µM each time. Further, the concentration for 50% growth inhibition (GI50) in assay [1] was 5 to 20 µM; in assay [2], 5 to 20 µM; in assay [3] it was ≤ 5 µM; in the assay with HT29 colon cancer cells, ≤ 5 µM; in assay [4], 5 to 20 µM.

For `Cc1cc(-c2n[nH]c3ccc(NC(=O)C(c4ccsc4)N4CCCC4)cc23)ccc1N1CCOCC1` (centres unmarked) [Example A59, N-(3-(3-methyl-4-morpholinophenyl)-1H-indazol-5-yl)-2-(pyrrolidin-1-yl)-2-(thiophen-3-yl)acetamide], the IC50 at human TTK and on human PLK4 was ≤ 5 µM throughout. In addition, the GI50 in assay [1] was ≤ 5 µM; in assay [2], ≤ 5 µM; in assay [3], ≤ 5 µM; in the assay on HT29 colon cancer cells, ≤ 5 µM; in assay [4], 5 to 20 µM.

For the molecule `C[C@@H](NC(=O)c1ccc2[nH]nc(-c3ccc(N4CCOCC4)cc3)c2c1)c1cccs1` [Example A53, (R)-3-(4-morpholinophenyl)-N-(1-(thiophen-2-yl)ethyl)-1H-indazole-5-carboxamide], the IC50 at human TTK and on human PLK4 was ≤ 5 µM throughout. In addition, the GI50 in assay [1] was ≤ 5 µM; in assay [2] it was ≤ 5 µM; in assay [3], ≤ 5 µM; with HT29 colon cancer cells it was ≤ 5 µM; in assay [4], 5 to 20 µM.

The record behind these values is patent US20140051679A1, “KINASE INHIBITORS AND METHOD OF TREATING CANCER WITH SAME” (UNIVERISTY HEALTH NETWORKS, priority 2011, published 2014).
